Each structure is given as a SMILES string. Active and inactive are the calls of the source. Cut-off read from the data, not from the text of the source, for most assays here: actives have a measured Kd and inactives only a lower limit. Where only a bound is given, the exact number is not on record here.

A word on the Kd: it is the free concentration of one partner at which half of the binding sites on the other are occupied at equilibrium, for simple one-to-one binding.

Assay [1] deals with Bone morphogenetic protein receptor type-1A (Homo sapiens, UniProt P36894).
Chain of Bone morphogenetic protein receptor type-1A (P36894 whole entry): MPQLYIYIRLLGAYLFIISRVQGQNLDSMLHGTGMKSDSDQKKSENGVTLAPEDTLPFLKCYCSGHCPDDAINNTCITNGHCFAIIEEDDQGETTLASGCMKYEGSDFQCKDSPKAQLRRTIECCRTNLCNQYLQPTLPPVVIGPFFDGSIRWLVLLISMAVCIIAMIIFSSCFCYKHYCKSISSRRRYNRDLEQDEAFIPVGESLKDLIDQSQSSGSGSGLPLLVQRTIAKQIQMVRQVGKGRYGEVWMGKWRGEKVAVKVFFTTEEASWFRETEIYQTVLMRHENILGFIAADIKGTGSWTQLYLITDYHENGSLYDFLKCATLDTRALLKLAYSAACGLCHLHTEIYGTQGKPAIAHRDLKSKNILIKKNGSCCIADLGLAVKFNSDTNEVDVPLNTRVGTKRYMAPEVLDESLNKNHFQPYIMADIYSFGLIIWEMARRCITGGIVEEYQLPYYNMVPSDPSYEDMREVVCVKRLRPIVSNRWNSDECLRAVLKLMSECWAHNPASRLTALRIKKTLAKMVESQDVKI
The target in assay [2] is Putative heat shock protein HSP 90-beta 2 (Homo sapiens, UniProt Q58FF8).
Chain of Putative heat shock protein HSP 90-beta 2 (Q58FF8 whole entry, canonical isoform): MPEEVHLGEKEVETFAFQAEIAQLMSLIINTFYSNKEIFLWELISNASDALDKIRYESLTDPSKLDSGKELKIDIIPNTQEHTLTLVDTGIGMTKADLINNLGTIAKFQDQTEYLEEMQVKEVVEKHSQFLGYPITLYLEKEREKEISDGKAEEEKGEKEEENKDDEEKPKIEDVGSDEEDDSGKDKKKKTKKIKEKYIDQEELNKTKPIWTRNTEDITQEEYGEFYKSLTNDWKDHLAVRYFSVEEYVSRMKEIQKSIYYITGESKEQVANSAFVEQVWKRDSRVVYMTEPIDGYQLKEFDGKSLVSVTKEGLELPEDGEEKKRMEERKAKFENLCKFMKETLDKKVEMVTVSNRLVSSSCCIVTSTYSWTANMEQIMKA
Assay [3] addresses S-adenosylmethionine synthase isoform type-2 (Homo sapiens, UniProt P31153).
The target in assay [4] is T1, STE20-related kinase adapter protein alpha (Homo sapiens, UniProt Q7RTN6).
T1 sequence (Q7RTN6 whole entry): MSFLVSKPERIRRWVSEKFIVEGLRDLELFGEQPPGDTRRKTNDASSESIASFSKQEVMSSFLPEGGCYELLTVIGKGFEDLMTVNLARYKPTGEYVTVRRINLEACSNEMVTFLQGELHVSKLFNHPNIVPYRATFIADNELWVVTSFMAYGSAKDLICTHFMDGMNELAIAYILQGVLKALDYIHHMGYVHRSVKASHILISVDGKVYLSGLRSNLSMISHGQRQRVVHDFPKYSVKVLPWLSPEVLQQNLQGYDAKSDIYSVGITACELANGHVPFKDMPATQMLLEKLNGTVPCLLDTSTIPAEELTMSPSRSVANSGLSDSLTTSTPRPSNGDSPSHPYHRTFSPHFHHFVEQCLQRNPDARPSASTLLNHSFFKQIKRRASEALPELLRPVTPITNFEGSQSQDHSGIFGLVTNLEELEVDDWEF

For assay [5], the target named is T2, EKC/KEOPS complex subunit TP53RK (Homo sapiens, UniProt Q96S44).
T2 sequence (Q96S44 whole entry): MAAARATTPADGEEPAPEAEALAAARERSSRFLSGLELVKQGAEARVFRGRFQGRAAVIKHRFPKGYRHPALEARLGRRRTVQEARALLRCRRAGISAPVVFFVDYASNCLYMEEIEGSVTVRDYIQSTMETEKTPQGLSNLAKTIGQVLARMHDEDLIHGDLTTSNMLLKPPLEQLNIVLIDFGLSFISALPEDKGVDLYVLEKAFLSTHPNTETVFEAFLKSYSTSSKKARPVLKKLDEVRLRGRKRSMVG

Assay [6] concerns the target Protein-tyrosine kinase 2-beta (Homo sapiens, UniProt Q14289).
Assay [7] deals with Ribosomal protein S6 kinase alpha-5 (Homo sapiens, UniProt O75582).
Chain of Ribosomal protein S6 kinase alpha-5 (O75582 whole entry): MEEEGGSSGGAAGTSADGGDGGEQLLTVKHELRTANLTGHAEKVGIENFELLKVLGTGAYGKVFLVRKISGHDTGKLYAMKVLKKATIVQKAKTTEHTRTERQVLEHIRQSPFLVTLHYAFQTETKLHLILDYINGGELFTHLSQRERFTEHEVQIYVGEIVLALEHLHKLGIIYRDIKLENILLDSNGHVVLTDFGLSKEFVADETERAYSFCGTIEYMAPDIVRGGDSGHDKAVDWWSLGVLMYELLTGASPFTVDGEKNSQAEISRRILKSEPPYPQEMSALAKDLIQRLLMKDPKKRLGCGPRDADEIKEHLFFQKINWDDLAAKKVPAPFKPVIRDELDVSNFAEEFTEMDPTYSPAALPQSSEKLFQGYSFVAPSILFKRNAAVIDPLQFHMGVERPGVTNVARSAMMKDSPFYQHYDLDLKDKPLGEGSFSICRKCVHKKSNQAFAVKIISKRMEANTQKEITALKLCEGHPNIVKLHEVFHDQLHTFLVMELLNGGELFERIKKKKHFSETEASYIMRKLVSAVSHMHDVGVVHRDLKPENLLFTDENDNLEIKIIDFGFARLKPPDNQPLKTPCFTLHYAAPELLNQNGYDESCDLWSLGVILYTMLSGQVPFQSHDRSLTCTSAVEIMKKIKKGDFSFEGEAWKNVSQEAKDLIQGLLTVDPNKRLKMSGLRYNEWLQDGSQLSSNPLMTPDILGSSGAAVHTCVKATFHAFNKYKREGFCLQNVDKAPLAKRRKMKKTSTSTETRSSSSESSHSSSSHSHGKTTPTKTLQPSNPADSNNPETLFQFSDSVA
The target in assay [8] is STE20-like serine/threonine-protein kinase (Homo sapiens, UniProt Q9H2G2).
Chain of STE20-like serine/threonine-protein kinase (Q9H2G2 whole entry): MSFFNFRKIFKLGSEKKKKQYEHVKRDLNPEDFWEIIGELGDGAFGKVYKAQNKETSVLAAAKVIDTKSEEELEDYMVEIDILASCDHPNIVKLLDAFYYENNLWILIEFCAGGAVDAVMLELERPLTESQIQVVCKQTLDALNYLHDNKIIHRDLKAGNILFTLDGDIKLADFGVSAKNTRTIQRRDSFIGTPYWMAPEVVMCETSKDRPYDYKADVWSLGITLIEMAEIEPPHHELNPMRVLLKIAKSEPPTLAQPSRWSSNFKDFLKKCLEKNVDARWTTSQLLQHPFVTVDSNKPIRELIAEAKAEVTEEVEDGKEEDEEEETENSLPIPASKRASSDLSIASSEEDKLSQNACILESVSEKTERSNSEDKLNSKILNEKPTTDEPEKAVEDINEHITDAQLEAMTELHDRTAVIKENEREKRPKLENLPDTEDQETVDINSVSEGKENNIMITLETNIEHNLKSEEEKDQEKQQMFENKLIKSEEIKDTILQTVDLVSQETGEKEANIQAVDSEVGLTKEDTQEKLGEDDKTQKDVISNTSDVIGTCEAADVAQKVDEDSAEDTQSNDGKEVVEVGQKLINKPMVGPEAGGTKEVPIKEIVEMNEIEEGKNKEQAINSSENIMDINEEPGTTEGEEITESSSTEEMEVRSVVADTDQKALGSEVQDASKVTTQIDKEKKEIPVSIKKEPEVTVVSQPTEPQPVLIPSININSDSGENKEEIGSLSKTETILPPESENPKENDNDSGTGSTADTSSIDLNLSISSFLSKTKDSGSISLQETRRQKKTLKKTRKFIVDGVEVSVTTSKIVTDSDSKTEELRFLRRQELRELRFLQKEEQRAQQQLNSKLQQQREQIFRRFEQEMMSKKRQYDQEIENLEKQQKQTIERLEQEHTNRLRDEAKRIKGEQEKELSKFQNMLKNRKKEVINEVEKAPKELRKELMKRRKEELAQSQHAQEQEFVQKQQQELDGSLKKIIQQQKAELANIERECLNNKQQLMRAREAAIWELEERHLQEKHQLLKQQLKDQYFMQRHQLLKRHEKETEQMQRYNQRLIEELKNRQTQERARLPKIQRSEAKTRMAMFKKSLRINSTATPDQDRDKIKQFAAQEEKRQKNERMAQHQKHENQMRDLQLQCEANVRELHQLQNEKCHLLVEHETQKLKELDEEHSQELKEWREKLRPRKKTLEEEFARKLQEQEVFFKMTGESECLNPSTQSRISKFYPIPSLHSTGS
Assay [9] deals with Tyrosine-protein kinase FRK (Homo sapiens, UniProt P42685).
Chain of Tyrosine-protein kinase FRK (P42685 whole entry): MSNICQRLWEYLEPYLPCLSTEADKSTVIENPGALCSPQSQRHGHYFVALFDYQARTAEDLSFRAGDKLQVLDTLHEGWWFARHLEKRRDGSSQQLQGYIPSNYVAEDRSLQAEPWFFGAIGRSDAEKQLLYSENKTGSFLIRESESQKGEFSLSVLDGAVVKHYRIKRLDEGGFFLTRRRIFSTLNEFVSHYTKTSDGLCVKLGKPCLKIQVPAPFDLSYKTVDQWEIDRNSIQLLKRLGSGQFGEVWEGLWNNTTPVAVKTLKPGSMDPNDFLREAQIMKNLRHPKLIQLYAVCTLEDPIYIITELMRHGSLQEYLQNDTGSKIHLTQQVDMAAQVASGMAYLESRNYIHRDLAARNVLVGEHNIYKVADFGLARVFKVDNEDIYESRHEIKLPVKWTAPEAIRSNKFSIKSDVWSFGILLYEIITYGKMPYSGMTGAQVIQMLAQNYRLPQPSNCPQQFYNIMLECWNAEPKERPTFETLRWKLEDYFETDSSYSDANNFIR
For assay [10], the target named is Tyrosine-protein kinase Fyn (Homo sapiens, UniProt P06241).
The target in assay [11] is T3, Serine/threonine-protein kinase TAO2 (Homo sapiens, UniProt Q9UL54).
T3 sequence (Q9UL54 whole entry): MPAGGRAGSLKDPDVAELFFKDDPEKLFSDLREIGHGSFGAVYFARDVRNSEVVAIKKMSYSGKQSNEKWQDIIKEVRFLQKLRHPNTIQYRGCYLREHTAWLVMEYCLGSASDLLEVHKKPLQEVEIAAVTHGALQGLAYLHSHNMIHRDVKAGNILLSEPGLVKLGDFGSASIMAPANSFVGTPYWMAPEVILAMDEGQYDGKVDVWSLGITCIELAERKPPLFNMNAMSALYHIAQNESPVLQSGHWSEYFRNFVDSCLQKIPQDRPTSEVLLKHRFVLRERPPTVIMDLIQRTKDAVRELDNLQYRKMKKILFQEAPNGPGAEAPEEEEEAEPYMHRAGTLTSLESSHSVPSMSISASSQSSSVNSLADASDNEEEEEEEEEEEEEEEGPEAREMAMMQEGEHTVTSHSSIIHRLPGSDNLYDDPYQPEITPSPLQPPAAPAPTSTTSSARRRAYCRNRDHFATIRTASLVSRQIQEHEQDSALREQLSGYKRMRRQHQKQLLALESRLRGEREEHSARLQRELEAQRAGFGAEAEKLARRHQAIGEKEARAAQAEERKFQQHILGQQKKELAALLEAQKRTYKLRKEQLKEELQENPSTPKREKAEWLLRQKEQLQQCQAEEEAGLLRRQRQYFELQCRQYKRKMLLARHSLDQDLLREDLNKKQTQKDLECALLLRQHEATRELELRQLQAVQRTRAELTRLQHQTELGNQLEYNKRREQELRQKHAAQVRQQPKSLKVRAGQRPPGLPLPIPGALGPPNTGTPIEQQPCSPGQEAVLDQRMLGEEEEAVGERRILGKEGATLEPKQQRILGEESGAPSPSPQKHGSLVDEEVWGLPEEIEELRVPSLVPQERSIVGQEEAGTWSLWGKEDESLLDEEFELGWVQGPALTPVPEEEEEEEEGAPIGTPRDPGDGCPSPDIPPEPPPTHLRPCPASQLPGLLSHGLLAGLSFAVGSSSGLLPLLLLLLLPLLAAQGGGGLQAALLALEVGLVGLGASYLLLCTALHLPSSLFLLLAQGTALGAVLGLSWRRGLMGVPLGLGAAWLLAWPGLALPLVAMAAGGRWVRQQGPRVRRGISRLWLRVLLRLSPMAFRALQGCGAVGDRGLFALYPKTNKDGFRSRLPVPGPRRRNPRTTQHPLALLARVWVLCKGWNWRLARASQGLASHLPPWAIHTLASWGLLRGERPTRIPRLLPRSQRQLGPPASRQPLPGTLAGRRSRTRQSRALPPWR

Assay [12] concerns the target Casein kinase I isoform alpha (Homo sapiens, UniProt P48729).
Note: in the data inactive means no Kd found up to 30 µM.

Chain of Casein kinase I isoform alpha (P48729 whole entry, canonical isoform): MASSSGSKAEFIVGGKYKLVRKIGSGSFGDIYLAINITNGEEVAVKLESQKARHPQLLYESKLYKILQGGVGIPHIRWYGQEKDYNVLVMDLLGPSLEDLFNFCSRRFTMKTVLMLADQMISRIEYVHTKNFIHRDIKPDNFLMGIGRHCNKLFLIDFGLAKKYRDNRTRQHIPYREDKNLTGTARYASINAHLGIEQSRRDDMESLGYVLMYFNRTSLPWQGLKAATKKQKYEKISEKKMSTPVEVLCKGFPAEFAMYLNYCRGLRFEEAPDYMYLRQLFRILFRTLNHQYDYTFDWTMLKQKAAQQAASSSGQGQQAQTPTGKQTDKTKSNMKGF
Chain of Protein-tyrosine kinase 2-beta (Q14289 whole entry): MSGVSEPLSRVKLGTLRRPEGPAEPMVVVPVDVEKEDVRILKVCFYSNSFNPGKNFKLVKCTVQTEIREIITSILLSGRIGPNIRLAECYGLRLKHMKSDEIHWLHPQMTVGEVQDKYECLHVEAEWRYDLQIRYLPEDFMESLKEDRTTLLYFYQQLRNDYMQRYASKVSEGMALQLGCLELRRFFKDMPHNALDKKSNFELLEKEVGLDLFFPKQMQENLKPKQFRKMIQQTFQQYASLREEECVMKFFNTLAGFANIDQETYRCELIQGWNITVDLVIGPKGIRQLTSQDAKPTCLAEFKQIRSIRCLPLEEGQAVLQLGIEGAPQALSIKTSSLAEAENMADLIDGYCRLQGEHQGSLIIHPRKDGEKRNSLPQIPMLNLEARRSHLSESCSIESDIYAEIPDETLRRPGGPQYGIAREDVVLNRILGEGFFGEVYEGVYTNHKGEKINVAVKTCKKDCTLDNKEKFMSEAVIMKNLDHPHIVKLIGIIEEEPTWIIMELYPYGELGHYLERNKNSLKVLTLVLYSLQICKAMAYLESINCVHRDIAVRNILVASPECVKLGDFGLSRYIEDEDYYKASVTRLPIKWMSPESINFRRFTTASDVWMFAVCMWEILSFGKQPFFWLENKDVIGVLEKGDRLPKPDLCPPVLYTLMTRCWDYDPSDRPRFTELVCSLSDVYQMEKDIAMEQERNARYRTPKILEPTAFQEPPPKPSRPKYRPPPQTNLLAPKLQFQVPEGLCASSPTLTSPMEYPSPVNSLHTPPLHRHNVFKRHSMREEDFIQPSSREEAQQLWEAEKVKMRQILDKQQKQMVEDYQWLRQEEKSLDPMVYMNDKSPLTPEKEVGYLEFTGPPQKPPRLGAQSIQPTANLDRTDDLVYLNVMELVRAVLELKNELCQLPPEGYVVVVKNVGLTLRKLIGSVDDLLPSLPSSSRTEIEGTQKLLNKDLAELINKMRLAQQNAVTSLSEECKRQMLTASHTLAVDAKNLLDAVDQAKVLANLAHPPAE

In the case of `Cc1nc(N)sc1-c1ccnc(Nc2ccc(N3CCOCC3)cc2)n1` [CYC-116], the Kd in assay [1], in assay [2], in assay [3], in [4] and in assay [5] was > 30 µM (inactive) throughout.
With `Cc1cc(Nc2cc(N3CCN(C)CC3)nc(/C=C/c3ccccc3)n2)n[nH]1` [ENMD-2076], the Kd in [1], in assay [2], in assay [3], in assay [6], in assay [7] and in assay [8] was > 30 µM (inactive) in each case. In addition, the Kd in [4] and in assay [5] was > 30 µM (inactive) each time.
Turning to `Cc1ccc(NC(=O)c2ccc(CN3CC[C@H](N(C)C)C3)c(C(F)(F)F)c2)cc1Nc1nccc(-c2cncnc2)n1` [BAFETINIB], the Kd in assay [1] is > 30 µM (inactive); in [9], 0.428 µM (active); in assay [10] it was 1.44 µM (active); in assay [2], > 30 µM (inactive); in assay [6], > 30 µM (inactive); in [7], > 30 µM (inactive). Besides, the Kd in assay [8], in assay [4], in [11] and in assay [5] was > 30 µM (inactive) in each case.
As to `O=C(Nc1cccc(Cl)c1)Nc1ncc(CCNc2ncnc3ccsc23)s1` [SNS-314], the Kd in assay [1], in assay [2], in assay [3], in assay [6], in assay [7] and in assay [4] was > 30 µM (inactive) throughout. For the same molecule, the Kd in [11] and in assay [5] was > 30 µM (inactive) in each case.
For `Nc1nc(N)c2nc(-c3cccc(O)c3)c(-c3cccc(O)c3)nc2n1` [TG100-115], the Kd in assay [2], in [3], in [4] and in assay [5] was > 30 µM (inactive) each time.
`CN1CCN(c2ccc3nc(-c4c(N)c5c(F)cccc5[nH]c4=O)[nH]c3c2)CC1` [DOVITINIB]: the Kd in [2], in assay [4] and in assay [5] was > 30 µM (inactive) in each case.
Turning to `COc1cc2nccc(Oc3ccc(NC(=O)Nc4cc(C)on4)c(Cl)c3)c2cc1OC` [TIVOZANIB], the Kd in [1], in [12], in [10], in assay [2], in [3] and in assay [6] was > 30 µM (inactive) throughout. The Kd in assay [7], in assay [8], in assay [4], in assay [11] and in assay [5] was > 30 µM (inactive) throughout.
With `CCc1cnn2c(NCc3ccc[n+]([O-])c3)cc(N3CCCC[C@H]3CCO)nc12` [DINACICLIB], the Kd in assay [1], in assay [9], in [2], in assay [3], in assay [6] and in [7] was > 30 µM (inactive) in each case. For the same molecule, the Kd is > 30 µM (inactive) in assay [8], > 30 µM (inactive) in assay [4], 2.23 µM (active) in [11] and > 30 µM (inactive) in assay [5].
Regarding `OCCn1cc(-c2cnc3nnn(Cc4ccc5ncccc5c4)c3n2)cn1` [PF-04217903], the Kd in assay [1], in [9], in assay [2], in [3], in assay [6] and in assay [7] was > 30 µM (inactive) each time. Also, the Kd in assay [8], in assay [4], in assay [11] and in assay [5] was > 30 µM (inactive) throughout.
For `Cn1cc(-c2ccc3nnc(C(F)(F)c4ccc5ncccc5c4)n3n2)cn1` [JNJ-38877605], the Kd in [1], in assay [12], in assay [9], in [10], in assay [2] and in assay [6] was > 30 µM (inactive) in each case. Also, the Kd in assay [7], in assay [8], in assay [4], in assay [11] and in assay [5] was > 30 µM (inactive) in each case.
On to `COc1cc(CCc2cc(NC(=O)c3ccc(N4C[C@@H](C)N[C@@H](C)C4)cc3)n[nH]2)cc(OC)c1` [AZD-4547], for which the Kd in assay [1], in assay [12], in [9], in assay [10], in assay [2] and in assay [6] was > 30 µM (inactive) in each case. Besides, the Kd in assay [7], in assay [8], in assay [4], in assay [11] and in assay [5] was > 30 µM (inactive) in each case.
In the case of `CCn1c(-c2nonc2N)nc2c(C#CC(C)(C)O)ncc(OC[C@H]3CCCNC3)c21` [GSK-690693], the Kd in [2], in assay [3], in [4] and in assay [5] was > 30 µM (inactive) in each case.
For `Cn1cc(-c2ccc(F)c(C(F)(F)F)c2)nc1C1CCN(c2ncnc3[nH]ncc23)CC1` [LY-2584702], the Kd in [1], in [12], in assay [9], in assay [10], in [2] and in assay [6] was > 30 µM (inactive) each time. Further, the Kd in assay [7], in assay [8], in assay [4], in assay [11] and in assay [5] was > 30 µM (inactive) throughout.
Turning to `Cc1cn(-c2cc(NC(=O)c3ccc(C)c(Nc4nccc(-c5cccnc5)n4)c3)cc(C(F)(F)F)c2)cn1` [NILOTINIB], the Kd in [2], in [3], in assay [4] and in [5] was > 30 µM (inactive) in each case.

The values are drawn from ChEMBL document CHEMBL3991601, “The target landscape of clinical kinase drugs” (Science, 2017).
